Literature values as cited in patent US9414584B2, “Stabilized hypohalous acid solutions” (PURICORE, INC., priority 2011, dated 2016).
Like-named read-outs stand apart in the source and are kept apart here.

Legend:
E. coli [1] = system: E. coli
Escherichia coli = Escherichia coli exposed to hypochlorous acid
E. coli [2] = conditions: 2.6 ppm; dilute bacterial suspensions; about 5 minutes

In the case of `OCl` [hypochlorous acid], the “concentration required for 100% kill in 5 minutes” value (S. typhosa) is given as 0.06 ppm, the “concentration required for 100% kill in 5 minutes” value (S. dysenteriae) is given as 0.05 ppm and the “concentration required for 100% kill in 5 minutes” value (E. coli [1]) is given as 0.03 ppm. The “time to lose viability” value (Escherichia coli) was “less than 100 ms”, the “growth inhibition of E. coli” value (E. coli [2]) was 100% and the “concentration required for 100% kill in 5 minutes” value (A. aerogenes) was 0.08 ppm.
In the case of `OCl` [sodium hypochlorite solution, sodium hypochlorite], the “time for 25 mg/mL solution to reach 20 mg/mL of free residual chlorine” value (20° C., Arrhenius calculation from studies at 50° C. and 70° C.) is listed as 166 days, the “loss of titrable chlorine” value (in the first 6 months) is listed as “approximately 20%” and the “loss of titrable chlorine” value (within a year) is listed as “up to 60%”.
